{
  "source": "patent US5036097A",
  "about": "“Phenylbutyl nitrone compositions and methods for prevention of gastric ulceration” (Oklahoma Medical Research Foundation, priority 1990, dated 1991)",
  "key": {"gastric ulceration": {"system": "gastric ulceration", "assay": "NSAID-induced gastric ulceration in rats (surface area of ulceration)", "type": "in vivo, rat (male Sprague-Dawley)", "conditions": "aspirin 200, diflunisal 125, naproxen 150, ibuprofen 230 mg/kg; oral gavage, 4 h", "description": "Male Sprague-Dawley rats (Charles River, Wilmington, Mass.) weighing 300-325 g were housed individually in wire bottomed cages to prevent ingestion of hair and feces. […] Piroxicam or aspirin and other NSAIDS were suspended in a vehicle of 1% carboxymethylcellulose, 0.1% Tween 80 and 0.15 M HCl, and administered in a volume of 1 ml on the morning of study by oral gavage using an 18 gauge curved blunt needle (Popper and Sons, New Hyde Park, N.Y.). One ml of vehicle alone was administered for control experiments. HCl was added to the vehicle to insure an acid environment in the stomach in all studies. […] Four hours after the administration of NSAID or vehicle, rats were euthanized with sodium pentobarbital (100 mg/kg IP), and the surface area of ulceration per stomach was quantitated using morphometric techniques. Stomachs were removed, the lumen was exposed by an incision along the radius of greater curvature, and the stomach was washed in phosphate buffered saline. The luminal surface was laid out on a flat surface with gross folds removed by gentle distension. The percentage of surface involved with submucosal hemorrhage was then determined by point counting, as described by Weibel, E. R. Stereological Methods: Practical Methods for Biological Morphometry. […] This was done by tabulation of the percentage of points over ulcerations using a point counting eyepiece graticle (16×16 points in a square format). At the 12X magnification used on the Wild dissecting microscope (Wild-Heerbrugg, Basel, Switzerland), the graticle covered a 1 cm^2 area of the surface. Four to five non-overlapping sampling sites were taken to fully cover the exposed surface. To determine the total luminal surface area, the outline of the outer boundary of the stomach was traced using a transparent acetate sheet, and the area was determined from planimetry. The surface area of ulcerated regions per stomach was then determined by multiplying the surface density of ulceration regions by the luminal surface area of the stomach.\nDifferences in total luminal surface area in cm^2, surface area of ulcerated regions per stomach and biochemical analyses between each treatment intervention and its corresponding untreated control group are compared using the Mann-Whitney U Test, Dixon, W. J., Massey, F. J., Jr. Introduction to statistical methods, 4th edition. […] In vitro studies are compared using the Student's unpaired T-test, Dixon, W. J., Massey, F. J., Jr. Introduction to statistical methods, 4th edition. […] Values are expressed as mean±SEM. Significance is assumed when P<0.05.\nPhenyl N-tert-butyl nitrone is obtained from Aldrich Chemicals, Milwaukee, Wis. All other chemicals and pharmaceuticals are from Sigma Chemical."}, "[1]": {"system": "isolated perfused gastric mucosa", "conditions": "cited from earlier work"}, "[2]": {"assay": "continuous i.v. administration toxicity in gerbils", "type": "in vivo", "conditions": "50 mg/kg/hr for a total of 48 hr", "description": "(§1) In vivo toxicity tests have indicated the following. […] An LD50 has yet to be determined because of the lack of toxicity."}, "[3]": {"system": "piroxicam-induced gastric ulcers", "assay": "suppression of piroxicam-induced gastric ulcers by interventions (PBN, free radical scavengers, ascorbate)", "type": "in vivo, rat (male Sprague-Dawley)", "description": "FIG. 2 is a graph of % control ulceration from piroxicam versus the % ulceration in the presence of free radical scavengers. The […] scavenger dimethylthiourea (DMTU, 500 mg/kg i.p.) was given 24 hours and 1 hour before piroxicam. […] The antioxidant butylated hydroxytoluene (BHT, 25 mg/kg/day i.p. in corn oil) was given for three days before and again 1 hour before piroxicam. The % control ulceration is determined by averaging the ratios of cm^2 ulceration in control stomachs from rats given piroxicam alone, and multiplying×100. +P< 0.01 compared to piroxicam alone.\nMale Sprague-Dawley rats (Charles River, Wilmington, Mass.) weighing 300-325 g were housed individually in wire bottomed cages to prevent ingestion of hair and feces. Animals were maintained without food for 48 hours and without water for 24 hours prior to each experiment. Piroxicam or aspirin and other NSAIDS were suspended in a vehicle of 1% carboxymethylcellulose, 0.1% Tween 80 and 0.15 M HCl, and administered in a volume of 1 ml on the morning of study by oral gavage using an 18 gauge curved blunt needle (Popper and Sons, New Hyde Park, N.Y.). One ml of vehicle alone was administered for control experiments. HCl was added to the vehicle to insure an acid environment in the stomach in all studies. […] Four hours after the administration of NSAID or vehicle, rats were euthanized with sodium pentobarbital (100 mg/kg IP), and the surface area of ulceration per stomach was quantitated using morphometric techniques. Stomachs were removed, the lumen was exposed by an incision along the radius of greater curvature, and the stomach was washed in phosphate buffered saline. The luminal surface was laid out on a flat surface with gross folds removed by gentle distension. The percentage of surface involved with submucosal hemorrhage was then determined by point counting, as described by Weibel, E. R. Stereological Methods: Practical Methods for Biological Morphometry. Academic Press, New York 1980. This was done by tabulation of the percentage of points over ulcerations using a point counting eyepiece graticle (16×16 points in a square format). At the 12X magnification used on the Wild dissecting microscope (Wild-Heerbrugg, Basel, Switzerland), the graticle covered a 1 cm^2 area of the surface. Four to five non-overlapping sampling sites were taken to fully cover the exposed surface. To determine the total luminal surface area, the outline of the outer boundary of the stomach was traced using a transparent acetate sheet, and the area was determined from planimetry. The surface area of ulcerated regions per stomach was then determined by multiplying the surface density of ulceration regions by the luminal surface area of the stomach.\nDifferences in total luminal surface area in cm^2, surface area of ulcerated regions per stomach and biochemical analyses between each treatment intervention and its corresponding untreated control group are compared using the Mann-Whitney U Test, Dixon, W. J., Massey, F. J., Jr. Introduction to statistical methods, 4th edition. (New York: McGraw Hill, 1983). […] In vitro studies are compared using the Student's unpaired T-test, Dixon, W. J., Massey, F. J., Jr. Introduction to statistical methods, 4th edition. (New York: McGraw Hill, 1983). Values are expressed as mean±SEM. Significance is assumed when P<0.05.\nIn each experiment, the surface area of gastric ulceration produced by piroxicam in 15 treated rats was compared to that in 15 rats of the same age and size that were fasted simultaneously but which received no intervention. Phenylbutyl nitrone (30 mg/kg) was given orally in water 1 hour before piroxicam and also added to vehicle when piroxicam was administered. When intervention were given with piroxicam, the pH of the final mixture was adjusted if necessary to equal that of piroxicam and vehicle alone."}, "[4]": {"conditions": "previous studies, standard techniques; cited from earlier work"}, "[5]": {"assay": "bioavailability / distribution estimate", "type": "in vivo"}, "pH stability of PBN": {"assay": "pH stability of PBN", "type": "physicochemical", "conditions": "degrades at pH less than approximately"}, "[6]": {"assay": "acute i.v. toxicity in gerbils", "type": "in vivo", "conditions": "10 to 300 mg/kg i.v., injected within 60 seconds", "description": "as §1"}, "[7]": {"assay": "in vivo acute toxicity in rodents", "conditions": "doses up to 3 g/kg in rodents", "description": "as §1"}, "[8]": {"assay": "pharmacokinetic studies, plasma half-life", "type": "in vivo", "conditions": "rat; limited pharmacokinetic studies", "description": "Limited pharmokinetic studies indicate that the plasma half-life in the rat is three to four hours."}},
  "data": [
    {"smiles": "CC(=O)Oc1ccccc1C(=O)O", "note": "[aspirin]", "values": [
      {"measurement": "gastric ulceration caused by NSAID", "setting": "gastric ulceration", "result": "0.972±0.318", "unit": "cm^2"},
      {"measurement": "mucosal adenosine triphosphate (ATP) and phosphocreatine (PC)", "setting": "[1]", "result": "decreases mucosal adenosine triphosphate (ATP) and phosphocreatine (PC)"}
    ]},
    {"smiles": "CC(C)Cc1ccc(C(C)C(=O)O)cc1", "note": "(centres unmarked) [ibuprofen]", "values": [
      {"measurement": "gastric ulceration caused by NSAID", "setting": "gastric ulceration", "result": "0.644±0.110", "unit": "cm^2"}
    ]},
    {"smiles": "COc1ccc2cc([C@H](C)C(=O)O)ccc2c1", "note": "[naproxen]", "values": [
      {"measurement": "gastric ulceration caused by NSAID", "setting": "gastric ulceration", "result": "0.370±0.056", "unit": "cm^2"}
    ]},
    {"smiles": "CC(C)(C)[N+]([O-])=Cc1ccccc1", "note": "[PBN, N-tert-Butyl-α-phenylnitrone]", "values": [
      {"measurement": "adverse effect, continuous i.v. administration", "setting": "[2]", "result": "no adverse effect"},
      {"measurement": "ulcerations/unit area", "setting": "[3]; piroxicam 23 mg/kg only, or plus PBN 30 mg/kg orally 1 hour before and with piroxicam, p<0.0052", "result": "0.077±0.104", "unit": "ulcerations/unit area"},
      {"measurement": "inhibition of piroxicam-induced ulcers, in words", "setting": "[3]; piroxicam 23 mg/kg, FIG. 2", "result": "markedly inhibited"},
      {"measurement": "mutagenicity", "setting": "[4]", "result": "not mutagenic"},
      {"measurement": "Kp", "setting": "[5]; brain, read-out: brain level as % of the plasma concentration", "result": 0.8},
      {"measurement": "distribution, in words", "setting": "[5]; in vivo", "result": "widely available throughout the body and is able to cross all of the barriers to distribution, including the blood brain barrier"},
      {"measurement": "pH below which PBN degrades", "setting": "pH stability of PBN", "result": "3 to 4", "unit": "pH"},
      {"measurement": "acute toxic effects, i.v.", "setting": "[6]", "result": "no acute toxic effects"},
      {"measurement": "adverse effects, acute doses", "setting": "[7]", "result": "no adverse effects"},
      {"measurement": "plasma half-life", "setting": "[8]", "result": "three to four"}
    ]},
    {"smiles": "O=C(O)c1cc(-c2ccc(F)cc2F)ccc1O", "note": "[diflunisal]", "values": [
      {"measurement": "gastric ulceration caused by NSAID", "setting": "gastric ulceration", "result": "0.597±0.103", "unit": "cm^2"}
    ]},
    {"smiles": "O=C1O[C@H]([C@@H](O)CO)C(O)=C1O", "note": "[ascorbate]", "values": [
      {"measurement": "increase in ulceration compared to control stomachs treated with piroxicam alone", "setting": "[3]; ascorbate plus piroxicam, P<0.001", "result": "over 600%"},
      {"measurement": "ulceration (ascorbate experiment)", "setting": "[3]; ascorbate-treated stomachs (with piroxicam) vs piroxicam alone, P<0.001", "result": "0.194±0.039", "unit": "cm^2"}
    ]}
  ]
}
